Experimental findings from ChEMBL document CHEMBL2010673, “Structure-activity relationship of pyrrole based S-nitrosoglutathione reductase inhibitors: carboxamide modification” (Bioorg Med Chem Lett, 2012) are described below.

As a reminder, the bioavailability is dose-corrected exposure relative to a reference, in per cent. The IC50 is the concentration at which inhibition is half-maximal. Broadly, the clearance is the volume of plasma or blood freed of the substance per unit of time. High values mean a high capacity for elimination, low ones a low capacity for elimination.

Tested on in the first series: not listed separately
The series is described as follows: Oral bioavailability in BALB/c mouse at 10 mg/kg by LC-MS/MS analysis. The class given is ADME, organism-based. Conditions: in vivo; call rule not given here.
`Cc1nccn1-c1ccc(-c2ccc(CCC(=O)O)n2-c2ccc(O)cc2)s1` had a bioavailability of 3.9%. In turn, `O=C(O)CCc1ccc(-c2ccc(-n3ccnc3)cc2)n1-c1ccc(O)cc1` gave a bioavailability of 6.8%.

The test system of a further series is A549. Put plainly: Cytotoxicity against human A549 cells after 48 hrs by MTS assay. In kind it is cell-based. Conditions: A549, 48 h. (Tetrazolium assays rely on reduction of a dye to a coloured formazan, in cell work by metabolically active cells.)
Consider `Cc1nccn1-c1ccc(-c2ccc(CCC(=O)O)n2-c2ccc(O)cc2)s1`, for which the IC50 is above 150 µM. Still for that read-out and setting: with `Cc1cc(NS(C)(=O)=O)ccc1-n1c(CCC(=O)O)ccc1-c1cc(-n2ccnc2C)cs1` the figure was above 150 µM; with `Cc1cc(S(N)(=O)=O)ccc1-n1c(CCC(=O)O)ccc1-c1ccc(-n2ccnc2C)s1`, above 150 µM; with `Cc1nccn1-c1ccc(-c2ccc(CCC(=O)O)n2-c2ccc(S(N)(=O)=O)cc2)s1`, above 150 µM.

Tested on in the next series: not listed separately
The series is described as follows: Inhibition of Smt-tagged S-nitrosoglutathione reductase expressed in Escherichia coli using […] as substrate for 3 mins by spectrophotometric analysis.
Conditions: not given
Turning to `CCOC(=O)CCc1ccc(-c2ccc(OC)cc2)n1-c1ccc(CC(N)=O)cc1`, the half-maximal inhibitory concentration (IC50) result is “Not Active”.

The series is the same for the next values; noted with them: read-out: IC50.
`Cc1cc(C(=O)O)ccc1-n1c(CCC(=O)O)ccc1-c1ccc(-n2ccnc2)cc1`: the IC50 amounted to 110 nM. In the case of `CCOC(=O)CCc1ccc(-c2ccc(OC)cc2)n1-c1ccc(C(C)=O)cc1`, the half-maximal inhibitory concentration (IC50) came out at 960 nM.

For `CCOC(=O)CCc1ccc(-c2ccc(OC)cc2)n1-c1ccc(C(=O)Nc2cccnc2)cc1C`, the IC50 is 440 nM.

As to `Cc1nccn1-c1csc(-c2ccc(CCC(=O)O)n2-c2ccc(O)cc2)c1`, the half-inhibitory concentration (IC50) is 96 nM. Still for that read-out and setting: with `CCOC(=O)CCc1ccc(-c2ccc(OC)cc2)n1-c1ccc(O)cc1` the figure was 240 nM; with `CCOC(=O)CCc1ccc(-c2ccc(OC)cc2)n1-c1ccc(C(=O)Nc2ccnnc2)cc1C`, 640 nM.

Turning to `Cc1nccn1-c1ccc(-c2ccc(CCC(=O)O)n2-c2ccc(O)cc2)s1`, the concentration for half-maximal inhibition (IC50) was found to be 36 nM. In the case of `Cc1cc(CN)ccc1-n1c(CCC(=O)O)ccc1-c1ccc(-n2ccnc2)cc1`, the IC50 came to 1590 nM. With `CCOC(=O)CCc1ccc(-c2ccc(OC)cc2)n1-c1ccc(NC(N)=O)cc1`, the half-maximal inhibitory concentration (IC50) amounted to 4800 nM. For `CCC(=O)Nc1ccc(-n2c(CCC(=O)O)ccc2-c2ccc(-n3ccnc3)cc2)c(C)c1`, the 50% inhibitory concentration (IC50) worked out at 88 nM. With `CC(=O)Nc1ccc(-n2c(CCC(=O)O)ccc2-c2ccc(-n3ccnc3C)cc2)cc1`, the half-maximal inhibitory concentration (IC50) is 3890 nM. On to `Cc1nccn1-c1ccc(-c2ccc(CCC(=O)O)n2-c2ccc(NS(C)(=O)=O)cc2)cc1`, for which the IC50 is 1790 nM. Regarding `CCOC(=O)CCc1ccc(-c2ccc(Br)cc2)n1-c1ccc(C(=O)Nc2ccncc2)cc1C`, the half-maximal inhibitory concentration (IC50) turned out to be 61 nM. `CCOC(=O)CCc1ccc(-c2ccc(OC)cc2)n1-c1ccc(S(N)(=O)=O)cc1C`: the IC50 was 330 nM. Consider `Cc1nccn1-c1ccc(-c2ccc(CCC(=O)O)n2-c2ccc(O)cc2)cc1`, for which the half-inhibitory concentration (IC50) is 54 nM. As for `Cc1cc(O)ccc1-n1c(CCC(=O)O)ccc1-c1ccc(-n2ccnc2)cc1`, the 50% inhibitory concentration (IC50) amounted to 180 nM. As to `Cc1cc(NS(C)(=O)=O)ccc1-n1c(CCC(=O)O)ccc1-c1ccc(-n2ccnc2C)cc1`, the IC50 is 180 nM. Same read-out and setting: with `CCOC(=O)CCc1ccc(-c2ccc(OC)cc2)n1-c1ccc(C(=O)NCCO)cc1C` the figure was 660 nM.

Take `CCOC(=O)CCc1ccc(-c2ccc(OC)cc2)n1-c1ccc(C(=O)NCCOC)cc1C`: the half-maximal inhibitory concentration (IC50) worked out at 730 nM. On the same count and under the same terms, the result for `CCOC(=O)CCc1ccc(-c2ccc(OC)cc2)n1-c1ccc(C(=O)NC)cc1C` reads 2410 nM; that for `O=C(O)CCc1ccc(-c2ccc(-n3ccnc3)s2)n1-c1ccc(O)cc1`, 32 nM. `O=C(O)CCc1ccc(-c2ccc(-n3ccnc3)cc2)n1-c1ccc(O)cc1`: the IC50 is 39 nM. Consider `Cc1nccn1-c1cc(-c2ccc(CCC(=O)O)n2-c2ccc(O)cc2)cs1`, for which the IC50 came out at 45 nM. Take `Cc1nccn1-c1csc(-c2ccc(CCC(=O)O)n2-c2ccc(NS(C)(=O)=O)cc2)c1`: the half-maximal inhibitory concentration (IC50) stood at 360 nM. On to `COCC(=O)Nc1ccc(-n2c(CCC(=O)O)ccc2-c2ccc(-n3ccnc3)cc2)c(C)c1`, for which the IC50 is 96 nM. As for `CCOC(=O)CCc1ccc(-c2ccc(OC)cc2)n1-c1ccc(NS(N)(=O)=O)cc1C`, the IC50 is 710 nM. Regarding `CCOC(=O)CCc1ccc(-c2ccc(OC)cc2)n1-c1ccc(Br)cc1`, the half-maximal inhibitory concentration (IC50) was 3250 nM. On the same count and under the same terms, the result for `CC(=O)Nc1ccc(-n2c(CCC(=O)O)ccc2-c2cc(-n3ccnc3C)cs2)cc1` reads 140 nM; that for `CC(=O)Nc1ccc(-n2c(CCC(=O)O)ccc2-c2ccc(-n3ccnc3)cc2)c(C)c1`, 56 nM; that for `CCOC(=O)CCc1ccc(-c2ccc(OC)cc2)n1-c1ccc(C(=O)NC)cc1`, 4560 nM. Consider `CCOC(=O)CCc1ccc(-c2ccc(OC)cc2)n1-c1ccc(O)cc1C`, for which the IC50 was 1550 nM. Still for that read-out and setting: with `Cc1cc(NS(C)(=O)=O)ccc1-n1c(CCC(=O)O)ccc1-c1cc(-n2ccnc2C)cs1` the figure was 76 nM.

As for `CCOC(=O)CCc1ccc(-c2ccc(OC)cc2)n1-c1ccc(C(=O)Nc2cncnc2)cc1C`, the IC50 is 3740 nM. Consider `Cc1cc(S(N)(=O)=O)ccc1-n1c(CCC(=O)O)ccc1-c1ccc(-n2ccnc2C)s1`, for which the IC50 was found to be 22 nM.

With `Cc1cc(N)ccc1-n1c(CCC(=O)O)ccc1-c1ccc(-n2ccnc2)cc1`, the concentration for half-maximal inhibition (IC50) came out at 1410 nM. Turning to `Cc1nccn1-c1ccc(-c2ccc(CCC(=O)O)n2-c2ccc(S(N)(=O)=O)cc2)s1`, the half-maximal inhibitory concentration (IC50) came out at 23 nM. `CCOC(=O)CCc1ccc(-c2ccc(OC)cc2)n1-c1ccc(NC(C)=O)cc1`: the half-inhibitory concentration (IC50) is 3270 nM. `CCOC(=O)CCc1ccc(-c2ccc(OC)cc2)n1-c1ccc(C(=O)N(C)C)cc1C`: the IC50 stood at 1310 nM. Turning to `CCOC(=O)CCc1ccc(-c2ccc(OC)cc2)n1-c1ccc(OC)cc1`, the IC50 was found to be 1020 nM. Same read-out and setting: with `CCOC(=O)CCc1ccc(-c2ccc(OC)cc2)n1-c1ccc(OC)cc1C` the figure was 1800 nM; with `CCOC(=O)CCc1ccc(-c2ccc(OC)cc2)n1-c1ccc(C(N)=O)cc1`, 460 nM; with `CCOC(=O)CCc1ccc(-c2ccc(OC)cc2)n1-c1ccc(C)cc1C`, 8840 nM. For `CCOC(=O)CCc1ccc(-c2ccc(OC)cc2)n1-c1ccc(C(=O)Nc2ccncc2)cc1C`, the 50% inhibitory concentration (IC50) was 170 nM. Turning to `CC(=O)Nc1ccc(-n2c(CCC(=O)O)ccc2-c2ccc(-n3ccnc3C)cc2)c(C)c1`, the IC50 was determined as 450 nM.

Tested on in a further series: not listed separately
Put plainly: Plasma clearance in BALB/c mouse at 2 mg/kg, iv by LC-MS/MS analysis. In kind it is ADME, organism-based. Details: dose 2 mg/kg, route intravenous.
Conditions: not given
Regarding `Cc1nccn1-c1ccc(-c2ccc(CCC(=O)O)n2-c2ccc(O)cc2)s1`, the clearance was 23.9 mL/min/kg. The same measure, in the same setting: the result for `O=C(O)CCc1ccc(-c2ccc(-n3ccnc3)cc2)n1-c1ccc(O)cc1` reads 37.1 mL/min/kg.
